We go through nine molecules from article PMC7570844, “Skin Damages—Structure Activity Relationship of Benzimidazole Derivatives Bearing a 5-Membered Ring System” (Molecules, 2020).

One data set relates to vaccinia virus. Put plainly: microbe, parasite or virus in culture. The class given is cell-based. The note with it: Orthopoxvirus vaccinia, HEL, read-out: Antiviral EC50.
Data set [1] has as its system herpes simplex virus-1 TK-KOS ACVr. In words: microbe, parasite or virus in culture. The class given is cell-based. The note with it: Human alphaherpesvirus 1, HEL, read-out: Antiviral EC50.
Data set [2] relates to human embryonic lung (HEL) cell cultures.
The subject of data set [3] is herpes simplex virus-2 (G). Put plainly: Antiviral activity in HEL cell cultures (CPE, MTS). Particulars: Human alphaherpesvirus 2; Herpes simplex virus-2, HEL cells. It counts as cell-based.
Data set [4] has as its system herpes simplex virus-1 (KOS). In words: Antiviral activity in HEL cell cultures (CPE, MTS). The class given is cell-based. The note with it: Human alphaherpesvirus 1, HEL cells.
Data set [5] is described as follows: Ferric reducing antioxidant power (FRAP) test. The note with it: mean ± SEM.
Data set [6] in a line: DPPH radical scavenging test. Particulars: mean ± SEM. (Loss of DPPH colour is used to gauge radical scavenging.)
The subject of a further data set is Adeno virus-2. In words: Antiviral activity in HEL cell cultures (CPE, MTS). Particulars: Adeno virus-2, HEL cells. It counts as cell-based.
A further data set has as its system Microsporum canis. Put plainly: Antidermatophyte plaque growth inhibition. The class given is cell-based. Particulars: for inhibition at 100 µg/mL: read-out: Percent growth inhibition.
A further data set deals with Microsporum gypseum. In words: Antidermatophyte plaque growth inhibition. Particulars: Nannizzia gypsea; for inhibition at 100 µg/mL: read-out: Percent growth inhibition. The class given is cell-based.
The test system of data set [7] is HEK293T (Normal Kidney Epithelial Cells). Put plainly: Cell proliferation inhibition, non-cancer control cells. The note with it: Homo sapiens, HEK-293T.
The test system of data set [8] is human cervical carcinoma cells (HeLa). Put plainly: Cell proliferation inhibition.
Another data set has as its system Epidermophyton floccosum. Put plainly: Antidermatophyte plaque growth inhibition. It counts as cell-based. The note with it: for inhibition at 100 µg/mL: read-out: Percent growth inhibition.
Data set [9] has as its system Respiratory syncytial virus. Put plainly: microbe, parasite or virus in culture. It counts as cell-based. Particulars: human respiratory syncytial virus, HeLa cells, read-out: Antiviral EC50.
In data set [10] the test system is human melanoma cells (SK-Mel 5). Put plainly: Cell proliferation inhibition.
Data set [11] deals with Trichophyton mentagrophytes. In words: Antidermatophyte plaque growth inhibition. The note with it: for inhibition at 100 µg/mL: read-out: Percent growth inhibition. The class given is cell-based.
The next data set has as its system Trichophyton tonsurans. In words: Antidermatophyte plaque growth inhibition. The class given is cell-based. Particulars: for inhibition at 100 µg/mL: read-out: Percent growth inhibition.
Another data set relates to HeLa cell cultures. The note with it: human.
The test system of data set [12] is vesicular stomatitis virus. Put plainly: microbe, parasite or virus in culture. It counts as cell-based. Particulars: HeLa, read-out: Antiviral EC50.
The nature of data set [13]: UV filtering parameters of compounds in solution (MeOH, 290-400 nm).
In data set [14] the test system is human pancreatic carcinoma cells (Mia Paca-2). Put plainly: Cell proliferation inhibition.
The subject of data set [15] is human T-lymphocyte cells (CEM). In words: Cell proliferation inhibition.
The next data set has as its system Human Coronavirus (229E). In words: microbe, parasite or virus in culture. The note with it: HEL, read-out: Antiviral EC50. The class given is cell-based.
A further data set concerns Coxsackie virus B4. In words: Antiviral activity in HeLa cell cultures (CPE, MTS). It counts as cell-based. The note with it: Enterovirus B; Coxsackie virus B4, HeLa cells.
The subject of data set [16] is M. gypseum, M. canis, T. mentagrophytes, T. tonsurans and E. floccosum. Put plainly: Antidermatophyte activity, all five dermatophytes taken together. It counts as cell-based.
Data set [17] in a line: UV filtering parameters of cosmetic formulation on PMMA plates (modified Diffey-Robson). It counts as physicochemical.
[18] abbreviates: M. canis, 100 µg/mL, '+' has no key.
The mark [19] stands for this setting: M. gypseum, 100 µg/mL, '+' has no key.
Where [20] appears, read: E. floccosum, 100 µg/mL, '+' has no key.
The mark [21] stands for this setting: T. mentagrophytes, 100 µg/mL, '+' has no key.
Where [22] appears, read: T. tonsurans, 100 µg/mL, '+' has no key.

≈ marks a conversion by molar mass, not a printed value. Read-outs that look alike come from different tables or passages of the source. Where only a bound is given, the exact number is not on record here.

Usually EC50 stands for the concentration at which the effect is half-maximal. With `Nc1nc2c(ncn2COCCO)c(=O)[nH]1` [Acyclovir, reference compound], the 50% effective concentration (EC50) in the data set on vaccinia virus was greater than 250 µM; in data set [1], 2 µM; in [3], 0.6 µM; in data set [4], 0.6 µM. For the same molecule, the Cytotoxic concentration in [2] was greater than 250 µM.
On to `O=c1[nH]c(=O)n([C@H]2C[C@H](O)[C@@H](CO)O2)cc1/C=C/Br` [Birivudin, Brivudin, reference compound], for which the figures for the concentration for a half-maximal effect (EC50) (in the data set with vaccinia virus; in data set [1]; in [4]) were 5.8 µM, 0.1 µM and 0.01 µM, respectively. The same molecule had a Cytotoxic concentration in data set [2] greater than 250 µM.
`O=C(O)/C=C/c1ccc(O)c(O)c1` [Caffeic acid, reference compound]: in data set [5], the FRAP worked out at 10156.12 ± 15.5 µmolTE/g. Also, the “DPPH (% Inhibition)” value in data set [6] (tested concentration 0.0105 mg/mL) is recorded as 81.35 ± 0.35%.
With `Nc1ccn(C[C@@H](CO)OCP(=O)(O)O)c(=O)n1` [Cidofovir, reference compound], the EC50 in the data set with Adeno virus-2 was found to be 10 µM; in the data set on vaccinia virus, 50 µM; in data set [1], 2.8 µM; in data set [3], 3.4 µM; in [4], 4.5 µM. The molecule also had a Cytotoxic concentration in data set [2] greater than 250 µM.
As usually defined, the inhibition is how much of the control response was suppressed. One may read the IC50 as the concentration that inhibits the measured activity by half. Broadly, the melting point is the temperature of the solid-liquid transition. Take `O=S(=O)(O)c1ccc2[nH]c(-c3ccco3)nc2c1` [Compound 8, 2-(furan-2-yl)-1H-benzimidazole-5-sulfonic Acid]: the melting point was greater than 250 °C. In addition, the inhibition at 100 µg/mL with Microsporum canis (setting [18]) was less than 0%. Moreover, the inhibition at 100 µg/mL in the data set with Microsporum gypseum (setting [19]) was 8 ± 2.44%. In addition, in data set [7], the IC50 was greater than 100 µM. Moreover, the IC50 in data set [8] is no less than 100 µM. Further, in the data set with Epidermophyton floccosum (setting [20]), the inhibition at 100 µg/mL was less than 0%. Further, in data set [9], the half-maximal effective concentration (EC50) was greater than 100 µM. The EC50 in the data set on Adeno virus-2 is greater than 100 µM. Further, the FRAP entry in [5] is “<LOQ *”. In addition, the IC50 in [10] was no less than 100 µM. Further, the inhibition at 100 µg/mL in data set [11] (setting [21]) is less than 0%. In addition, the 50% effective concentration (EC50) in the data set with vaccinia virus was greater than 100 µM. The inhibition at 100 µg/mL in the data set on Trichophyton tonsurans (setting [22]) was less than 0%. In addition, the Cytotoxic concentration in the data set with HeLa cell cultures is greater than 100 µM. Besides, in data set [12], the 50% effective concentration (EC50) is greater than 100 µM. Further, the EC50 in data set [1] is greater than 100 µM. Moreover, the Cytotoxic concentration in [2] is reported as greater than 100 µM. Besides, in data set [13], the SPF stood at 10.96±0.54, the UVA/UVB came to 0.29, the UVAPF was 1.33±0.05 and the “λc (critical wavelength)” value was determined as 342 nm. In addition, the concentration for half-maximal inhibition (IC50) in data set [14] is no less than 100 µM. Besides, the half-inhibitory concentration (IC50) in [15] is greater than 100 µM. Also, in the data set with Human Coronavirus (229E), the EC50 is greater than 100 µM. In addition, the “DPPH (% Inhibition)” value in data set [6] (tested at 1 mg/mL) is on record as 10.96 ± 0.56%. In addition, the EC50 with Coxsackie virus B4 is greater than 100 µM. In data set [3], this molecule yielded an EC50 greater than 100 µM. This molecule returned an EC50 in data set [4] greater than 100 µM.
Regarding `c1csc(-c2nc3ccccc3[nH]2)c1` [Compound 12, 2-(thiophen-2-yl)-1H-benzimidazole], the IC50 in the data set with Microsporum canis (M. canis growth, read-out: IC50) was 2.14 ± 0.09 µg/mL (≈ 10.7 µM); in the data set with Microsporum gypseum (M. gypseum growth, read-out: IC50) it was 1.55 ± 0.03 µg/mL (≈ 7.74 µM); in data set [7] it was greater than 100 µM; in [8], greater than 100 µM; in the data set on Epidermophyton floccosum (E. floccosum growth, read-out: IC50), 3.8 ± 0.07 µg/mL (≈ 19 µM); in [16] (all five dermatophytes, read-out: IC50 range over the five dermatophytes), 0.97 to 3.8 µg/mL (≈ 4.84 to 19 µM). Further, the IC50 was 86 ± 17 µM in data set [10]; 1.74 ± 0.11 µg/mL (≈ 8.69 µM) in [11] (T. mentagrophytes growth, read-out: IC50); 2.42 ± 0.15 µg/mL (≈ 12.1 µM) with Trichophyton tonsurans (T. tonsurans growth, read-out: IC50); no less than 100 µM in [14]; greater than 100 µM in [15]. The inhibition at 100 µg/mL is 92.9 ± 1.33% in the data set on Microsporum canis (setting [18]); 100 ± 1.63% in the data set on Microsporum gypseum (setting [19]); 94.7 ± 5.45% with Epidermophyton floccosum (setting [20]); roughly 100% in data set [16] (100 µg/mL, all five dermatophytes, read-out: Percentage of growth inhibition over the five dermatophytes); 98.1 ± 2.76% in [11] (setting [21]); 97 ± 1.34% with Trichophyton tonsurans (setting [22]). Also, the “Activity on dermatophytes (in words)” value in [16] (100 µg/mL) was “fungicide activity”. In addition, the half-maximal effective concentration (EC50) (in data set [9]; in the data set on Adeno virus-2; in the data set with vaccinia virus; in data set [12]; in data set [1]; in the data set with Human Coronavirus (229E)) was greater than 100 µM in each case. The EC50 (with Coxsackie virus B4; in [3]; in data set [4]) was greater than 100 µM in each case. Moreover, the FRAP in data set [5] turned out to be 75.89 ± 5.43 µmolTE/g. The Cytotoxic concentration (with HeLa cell cultures; in data set [2]) was greater than 100 µM in each case. For the same molecule, the UVA/UVB in [13] amounted to 0.37; in [17] (1% in formulation) it was 0.71; in data set [17] (2% in formulation) it was 0.70; in data set [17] (3% in formulation), 0.69. Also, the UVAPF in [13] was 1.49±0.07; in data set [17] (1% in formulation) it was 1.16; in data set [17] (2% in formulation) it was 1.22; in data set [17] (3% in formulation), 1.26. In [13], the “λc (critical wavelength)” value is 345 nm. For the same molecule, the “DPPH (% Inhibition)” value in [6] (tested at 1 mg/mL) is given as 35.05 ± 0.87%. For the same molecule, the figures for the SPF in data set [17] (1% in formulation), in [17] (2% in formulation) and in [17] (3% in formulation) were 2.41, 2.59 and 2.79, respectively. In addition, the λc amounted to 340 nm in data set [17] (1% in formulation), 342 nm in [17] (2% in formulation) and 344 nm in data set [17] (3% in formulation).
With `Nc1nc(O)c2ncn(COC(CO)CO)c2n1` [Ganciclovir, reference compound], the EC50 in the data set on vaccinia virus is greater than 100 µM; in data set [1], 0.2 µM; in [3], 0.01 µM; in [4], 0.01 µM. In data set [2], this molecule gave a Cytotoxic concentration greater than 250 µM.
For the molecule `O=S(=O)(O)c1ccc2[nH]c(-c3ccccc3)nc2c1` [PBSA, 2-phenyl-1H-benzimidazole-5-sulphonic acid, reference compound], the inhibition at 100 µg/mL was less than 0% in the data set with Microsporum canis; 9.62 ± 0.61% in the data set with Microsporum gypseum; 7.41 ± 0.43% in the data set with Epidermophyton floccosum; less than 0% in data set [11]; less than 0% in the data set with Trichophyton tonsurans. For the same molecule, the “Activity on dermatophytes (in words)” value in data set [16] (100 µg/mL) is listed as “no activity on dermatophytes”. Moreover, the FRAP result in [5] is recorded as “<LOQ *”. For the same molecule, the SPF in data set [13] was found to be 3.40±0.17; in data set [17] (1% in formulation) it was 3.22; in data set [17] (2% in formulation) it was 4.63; in [17] (3% in formulation), 5.09. Also, the UVA/UVB in data set [13] stood at 0.29; in [17] (1% in formulation), 0.33; in [17] (2% in formulation) it was 0.22; in data set [17] (3% in formulation), 0.25. In addition, the UVAPF in data set [13] came out at 1.03±0.08; in data set [17] (1% in formulation) it was 0.94; in data set [17] (2% in formulation), 0.94; in data set [17] (3% in formulation), 1.02. Besides, in data set [13], the “λc (critical wavelength)” value turned out to be 322 nm. Also, the “DPPH (% Inhibition)” value in data set [6] (tested at 1 mg/mL) is “<LOQ *”. Also, the λc in [17] (1% in formulation) came to 319 nm; in data set [17] (2% in formulation), 321 nm; in data set [17] (3% in formulation) it was 324 nm.
Take `NC(=O)c1ncn([C@@H]2O[C@H](CO)[C@@H](O)[C@H]2O)n1` [Ribaravin, ribavirin, reference compound]: the results for the EC50 (in [9]; in [12]; with Coxsackie virus B4) were 10 µM, 112 µM and 250 µM, respectively.
